From ChEMBL document CHEMBL1127400 (J Med Chem, 1994)

Experiments:
[1] = biological target: T1, Sodium-dependent dopamine transporter (Rattus norvegicus, UniProt P23977); assay: Binding affinity was determined against cocaine receptor by measuring the ability of compound to displace bound [3H]-3 from rat caudate-putamen tissue; assay type: tissue-based
[2] = biological target: T1, Sodium-dependent dopamine transporter; assay: Tested for its ability to inhibit high affinity uptake of [3H]dopamine into rat caudate-putamen tissue; assay type: tissue-based
[3] = biological target: T1, Sodium-dependent dopamine transporter; assay: Binding affinity was determined against cocaine binding site by measuring the ability of compound to displace bound [3H]dopamine from rat caudate-putamen tissue; assay type: tissue-based
[4] = Tested for its ability to inhibit high affinity uptake of [3H]-dopamine into rat caudate-putamen tissue; assay type: functional, tissue-based

T1 sequence (P23977 whole entry): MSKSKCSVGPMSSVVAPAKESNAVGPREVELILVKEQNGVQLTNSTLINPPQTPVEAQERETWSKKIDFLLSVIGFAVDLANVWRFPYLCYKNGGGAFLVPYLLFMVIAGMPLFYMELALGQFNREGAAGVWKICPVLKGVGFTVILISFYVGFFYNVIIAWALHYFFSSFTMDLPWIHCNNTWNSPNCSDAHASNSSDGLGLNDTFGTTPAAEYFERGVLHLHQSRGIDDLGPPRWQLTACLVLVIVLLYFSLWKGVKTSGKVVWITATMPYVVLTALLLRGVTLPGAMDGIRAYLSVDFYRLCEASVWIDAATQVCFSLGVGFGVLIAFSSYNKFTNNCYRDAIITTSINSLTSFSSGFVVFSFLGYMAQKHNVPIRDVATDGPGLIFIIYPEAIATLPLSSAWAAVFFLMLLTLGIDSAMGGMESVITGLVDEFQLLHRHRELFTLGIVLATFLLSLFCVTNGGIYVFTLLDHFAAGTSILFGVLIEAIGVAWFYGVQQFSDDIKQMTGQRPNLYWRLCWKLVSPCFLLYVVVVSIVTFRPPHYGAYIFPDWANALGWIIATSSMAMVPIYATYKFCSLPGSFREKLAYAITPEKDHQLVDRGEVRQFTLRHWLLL

## COC(=O)[C@@H]1C2CC[C@H](C[C@@H]1c1ccccc1)N2C
[1]
  Ki: 314 nM
[2]
  IC50: 373 nM
[3]
  Ki: 33 nM

## CN1C2CC[C@@H]1C[C@H](c1ccccc1)C2CC/C=C/C(=O)O (stereo partly drawn)
[3]
  Ki: 20 nM
[4]
  IC50: 203 nM

## CN1C2CC[C@@H]1C[C@H](c1ccccc1)C2CCCO (stereo partly drawn)
[2]
  IC50: 64 nM
[3]
  Ki: 11 nM

## COC(=O)CCC1C2CC[C@H](C[C@@H]1c1ccccc1)N2C (stereo partly drawn)
[2]
  IC50: 166 nM
[3]
  Ki: 23 nM

## COC(=O)/C=C/C1C2CC[C@H](C[C@@H]1c1ccccc1)N2C (stereo partly drawn)
[2]
  IC50: 123 nM
[3]
  Ki: 22 nM

## CN1C2CC[C@@H]1C[C@H](c1ccccc1)C2/C=C/CO (stereo partly drawn)
[3]
  Ki: 26 nM
[4]
  IC50: 159 nM
